Assay results published in patent publication US9718780B2, “Substituted pyridines as sodium channel blockers” (priority 2012, dated 2017).

These compounds were tested against human Nav1.7 (Homo sapiens (Human), UniProt Q15858) (assay: FLIPR or FLIPR TETRA sodium dye assay with KCl and test article pre-incubation). Details: read-out: Nav1.7 Activity (μM) FLIPR assay IC50 (μM) ± SEM.
Format: cell-based

Chain of human Nav1.7 (Q15858 with tags, fused parts or gaps limits assumed): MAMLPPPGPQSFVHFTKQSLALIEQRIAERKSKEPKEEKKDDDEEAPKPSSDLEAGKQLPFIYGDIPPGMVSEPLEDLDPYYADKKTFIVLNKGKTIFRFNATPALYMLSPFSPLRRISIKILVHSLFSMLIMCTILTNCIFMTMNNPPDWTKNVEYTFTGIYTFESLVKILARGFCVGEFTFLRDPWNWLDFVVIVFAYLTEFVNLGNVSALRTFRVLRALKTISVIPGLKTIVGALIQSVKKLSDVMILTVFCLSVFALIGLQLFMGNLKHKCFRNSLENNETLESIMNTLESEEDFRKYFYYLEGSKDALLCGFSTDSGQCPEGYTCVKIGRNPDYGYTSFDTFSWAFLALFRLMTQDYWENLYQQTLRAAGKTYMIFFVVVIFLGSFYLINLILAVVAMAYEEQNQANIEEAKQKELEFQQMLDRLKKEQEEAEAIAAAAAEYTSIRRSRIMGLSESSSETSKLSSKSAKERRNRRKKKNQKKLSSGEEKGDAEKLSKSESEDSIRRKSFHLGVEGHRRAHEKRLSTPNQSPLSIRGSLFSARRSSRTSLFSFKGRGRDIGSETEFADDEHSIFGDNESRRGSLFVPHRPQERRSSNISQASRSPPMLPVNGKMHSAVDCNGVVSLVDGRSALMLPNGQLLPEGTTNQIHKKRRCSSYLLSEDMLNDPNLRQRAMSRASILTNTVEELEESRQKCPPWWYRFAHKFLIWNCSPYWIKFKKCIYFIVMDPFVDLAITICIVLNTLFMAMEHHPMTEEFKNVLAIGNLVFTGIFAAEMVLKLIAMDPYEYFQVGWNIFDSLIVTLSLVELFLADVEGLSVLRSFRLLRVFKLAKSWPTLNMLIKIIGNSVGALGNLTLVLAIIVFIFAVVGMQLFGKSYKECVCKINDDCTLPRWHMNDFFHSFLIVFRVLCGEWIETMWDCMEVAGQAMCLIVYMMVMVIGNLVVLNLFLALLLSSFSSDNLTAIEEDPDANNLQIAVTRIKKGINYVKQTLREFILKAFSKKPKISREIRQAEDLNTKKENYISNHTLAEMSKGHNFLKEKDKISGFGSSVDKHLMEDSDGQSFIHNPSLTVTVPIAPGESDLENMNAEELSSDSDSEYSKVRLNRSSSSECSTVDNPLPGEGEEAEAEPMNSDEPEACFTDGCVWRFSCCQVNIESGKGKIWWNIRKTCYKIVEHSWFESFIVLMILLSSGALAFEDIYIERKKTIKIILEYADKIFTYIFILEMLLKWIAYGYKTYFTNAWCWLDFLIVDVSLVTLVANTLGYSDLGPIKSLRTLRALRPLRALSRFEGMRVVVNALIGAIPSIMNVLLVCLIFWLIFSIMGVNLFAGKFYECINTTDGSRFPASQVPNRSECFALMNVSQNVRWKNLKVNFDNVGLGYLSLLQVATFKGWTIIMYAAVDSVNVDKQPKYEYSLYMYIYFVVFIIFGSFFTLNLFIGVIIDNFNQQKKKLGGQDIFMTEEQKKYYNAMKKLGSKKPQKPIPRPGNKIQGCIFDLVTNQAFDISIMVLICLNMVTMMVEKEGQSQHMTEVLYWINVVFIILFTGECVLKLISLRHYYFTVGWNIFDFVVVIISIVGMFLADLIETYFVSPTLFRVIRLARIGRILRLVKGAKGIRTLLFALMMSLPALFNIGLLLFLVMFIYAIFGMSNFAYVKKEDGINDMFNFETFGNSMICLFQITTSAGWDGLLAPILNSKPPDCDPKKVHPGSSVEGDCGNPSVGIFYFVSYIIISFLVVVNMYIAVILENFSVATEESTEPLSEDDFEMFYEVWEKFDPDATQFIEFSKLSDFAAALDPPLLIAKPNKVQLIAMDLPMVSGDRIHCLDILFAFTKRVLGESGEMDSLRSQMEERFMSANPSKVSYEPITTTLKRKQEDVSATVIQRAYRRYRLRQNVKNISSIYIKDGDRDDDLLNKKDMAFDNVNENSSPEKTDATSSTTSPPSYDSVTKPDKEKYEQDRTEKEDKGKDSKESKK

| Compound | IC50 [µM] |
| --- | --- |
| O=C(c1cccc(-c2ccc(Oc3ccc(F)cc3)cc2)n1)[C@H](O)CO [Compound 1, (R)-1-(6-(4-(4-fluorophenoxy)phenyl)pyridin-2-yl)-2,3-dihydroxypropan-1-one] | 0.133 ± 0.005 |
| N#Cc1ccc(Oc2ccc(-c3cccc(C(=O)[C@H](O)CO)n3)cc2)cc1C(F)(F)F [Compound 2, (R)-4-(4-(6-(2,3-dihydroxypropanoyl)pyridin-2-yl)phenoxy)-2-(trifluoromethyl)benzonitrile] | 0.365 ± 0.065 |
| N#Cc1cc(Oc2ccc(-c3cccc(C(=O)[C@H](O)CO)n3)cc2)ccc1C(F)(F)F [Compound 3, (R)-5-(4-(6-(2,3-dihydroxypropanoyl)pyridin-2-yl)phenoxy)-2-(trifluoromethyl)benzonitrile] | 0.402 ± 0.096 |
| O=C(c1cccc(-c2ccc(Oc3ccc(C(F)(F)F)cc3)cc2)n1)[C@H](O)CO [Compound 4, (R)-2,3-dihydroxy-1-(6-(4-(4-(trifluoromethyl)phenoxy)phenyl)pyridin-2-yl)propan-1-one] | 0.136 ± 0.016 |
| N#Cc1ccc(Oc2ccc(-c3cccc(C(=O)[C@H](O)CO)n3)cc2)cc1 [Compound 5, (R)-4-(4-(6-(2,3-dihydroxypropanoyl)pyridin-2-yl)phenoxy)benzonitrile] | 0.149 ± 0.023 |
| N#Cc1cc(Oc2ccc(-c3cccc(C(O)C(N)=O)n3)cc2)ccc1C(F)(F)F (stereo not drawn) [Compound 6, 2-(6-(4-(3-cyano-4-(trifluoromethyl)phenoxy)phenyl)pyridin-2-yl)-2-hydroxyacetamide] | 0.722 ± 0.053 |
